{
  "source": "patent US9233144B2",
  "about": "“Tyrosine kinase receptor TYRO3 as a therapeutic target in the treatment of cancer” (INSTITUT CURIE, priority 2008, dated 2016)",
  "key": {"TYRO3 [1]": {"system": "TYRO3", "experiment": "Efficiency of TYRO3 silencing after siRNA transfection (mRNA and western-blot)", "format": "cell-based, human", "conditions": "MGH-U3, KK47, J82 and RT112 cells; 50 nM siRNA; 72 hours after transfection", "method": "Cells were transfected with 50 nM siRNA (siRNA anti-TYRO3 (SEQ ID No. 1) or control siRNA (scramble, SEQ ID No. 2)) and the efficiency of TYRO3 silencing was assessed 72 hours after transfection by western-blot."}, "[2]": {"system": "MGH-U3, KK47, J82 and RT112 cells", "experiment": "Cell viability after siRNA transfection (trypan blue count)", "format": "cell-based, human", "conditions": "50 nM siRNA, 72 hours after transfection", "method": "(§1) After transfection as described in the legend of FIG. 4, cells were treated with trypsin 72 hours after transfection, stained with trypan blue and viable cells were counted in triplicate, using a Malassez hematocytometer. Results are the means+/−SD of two independent experiments carried out in triplicate.\n(§2) In order to investigate the role of TYRO3 in cell growth and tumorigenic properties, TYRO3 expression was blocked using RNA interference technology or TYRO3 activity was inhibited using a blocking antibody directed against the extracellular domain of TYRO3 or a soluble receptor consisting of the recombinant extracellular domain of TYRO3 produced in bacteria. Two cell lines expressing TYRO3 (MGH-U3, KK47), two cell lines expressing both TYRO3 and GAS6 (J82, RT112) and one control breast cancer derived cell line presenting a very low TYRO3 expression level (MCF-7) were used. It was shown by western blot using an anti-phosphotyrosine antibody after TYRO3 immunoprecipitation that in each type of cell line (expressing or not GAS6), TYRO was activated (data not shown)."}, "MCF7 cells": {"system": "MCF7 cells", "experiment": "Cell viability after siRNA transfection, control cell line with very low TYRO3 expression", "format": "cell-based, human", "method": "as §1, §2"}, "bladder cancer cells [3]": {"system": "bladder cancer cells", "experiment": "TUNEL assay on transfected bladder cancer cells", "format": "cell-based, human", "conditions": "50 nM siRNA; 72 hours after transfection", "method": "3×10^4 cells per well were seeded on a glass slide in a 24-well plate and transfected with 50 nM siRNA. DNA fragmentation was evaluated 72 hours after transfection, using a TUNEL (deoxynucleotidyl transferase (Tdt)-mediated nick-end labeling) assay detection Kit (Roche Diagnostic, Meylan, France) according to the manufacturer's instructions. The inventors analyzed 600 cells under a light microscope, determining the proportion of labeled cells."}, "bladder cancer cells [4]": {"system": "bladder cancer cells", "experiment": "Cell cycle analysis by flow-cytometry 72 h post siRNA transfection", "format": "cell-based, human", "method": "Results were analyzed using Fisher test, *** p<0.001, * 0.01<p<0.05"}, "[5]": {"system": "MGH-U3, KK47, RT112 and J82 colonies", "experiment": "Anchorage-independent colony formation in soft agar", "format": "cell-based, human", "conditions": "50 nM siRNA, two weeks", "method": "2.10^4 50 nM siRNA-transfected cells in DMEM supplemented with 10% FCS and 0.3% agar, were added to triplicate wells containing medium and 0.8% agar on 12-well plates. The plates were incubated for two weeks and colonies with diameters greater than 50 μm were scored as positive, using a phase-contrast microscope equipped with a measuring grid. Results are the means+/−SD of two independent experiments carried out in triplicate."}, "MGH-U3 xenografts": {"system": "MGH-U3 xenografts", "experiment": "Growth of MGH-U3 xenografts, siRNA treatment", "format": "in vivo, athymic nude mice", "method": "Tumor-bearing mice were treated three times a week by intraperitoneal injection of 4 μg siRNA (control or TYRO3) (6 mice and 12 tumors per group) (The first injection corresponds to day 0). Tumor volume variations are represented on the graph of FIG. 12A. (Wilcoxon rank sum test: *, 0.05<p<0.01, **, 0.01<p<0.001, ***, p<0.001) Inset are pictures of representative tumors observed at the end of the treatment. The upper line tumors are those of TYRO3 siRNA treated mice. The middle line tumors are those of control siRNA treated mice. The lower line tumors are those of PBS treated mice. Tumors were weighted at the end of the experiment (FIG. 12B).\nThe role of this gene in bladder cancer cell growth in vivo was studied. J82 and MGH-U3 cells were implanted subcutaneously in athymic nude mice. Once tumors were established, mice were randomly selected for treatment with control or TYRO3-specific siRNAs. For J82 xenografts, two weeks after the beginning of treatment only three tumors out of 12 were still observed (FIGS. 11A and 11B). For MGH-U3 xenografts, after 21 days of treatment, tumor volume was 70% lower in mice treated with TYRO3 siRNA than in mice treated with control siRNA (Wilcoxon rank-sum test, p<0.001) (FIGS. 12A and 12B)."}, "TYRO3 [6]": {"system": "TYRO3", "experiment": "TYRO3 mRNA levels in MGH-U3 xenografts by Q-RT-PCR", "format": "in vivo, athymic nude mice", "conditions": "3 days after the last siRNA injection, Student's t-test p<0,001", "excerpt": "FIG. 13 is a graph showing TYRO3 mRNA levels for MGH-U3 xenografts, 3 days after the last siRNA injection, divided by TBP (TATA binding protein) mRNA levels+/−SD in treated and control tumors, as assessed by Q-RT-PCR."}, "[7]": {"conditions": "siRNA treated xenografts, data not shown"}},
  "data": [
    {"substance": "TYRO3 siRNA: siRNA anti-TYRO3 comprising the sequence of SEQ ID No. 1 (GGUGUGCCAUUUUUCACAGTT; chemistry not given here)", "values": [
      {"measurement": "inhibition of TYRO3 mRNA and protein levels", "setting": "TYRO3 [1]", "result": "80-90%"},
      {"measurement": "viable cells versus control siRNA", "setting": "[2]", "result": "fewer viable"},
      {"measurement": "effect on viable cells", "setting": "MCF7 cells", "result": "no effect"},
      {"measurement": "apoptotic rate (TUNEL)", "setting": "bladder cancer cells [3]", "result": "increased apoptotic rate"},
      {"measurement": "change in cell-cycle progression", "setting": "bladder cancer cells [4]", "result": "significant but low change"},
      {"measurement": "viable colonies in soft agar assays", "setting": "[5]", "result": "fewer viable"},
      {"measurement": "tumor volume lower than in mice treated with control siRNA", "setting": "MGH-U3 xenografts; MGH-U3 xenografts, after 21 days of treatment, 4 μg siRNA intraperitoneal three times a week, p<0.001", "result": 70, "unit": "%"},
      {"measurement": "apoptosis in treated tumors (TUNNEL analysis)", "setting": "MGH-U3 xenografts; [7]", "result": "increase apoptosis"},
      {"measurement": "histological difference between treated and control tumors", "setting": "MGH-U3 xenografts; [7]", "result": "No histological difference"},
      {"measurement": "TYRO3 mRNA levels in tumors", "setting": "TYRO3 [6]", "result": "significant decrease"}
    ]}
  ]
}
